Laboratory results from patent US7982017B2, “Antibodies recognizing a carbohydrate containing epitope on CD-43 and CEA expressed on cancer cells and methods using same” (BioAlliance C.V., priority 2007, dated 2011).

How the values were obtained:
Colo205 cells = assay: Apoptosis of Colo205 cells by 5F1 antibodies in combination with Oxaliplatin (24 h, Annexin V / PI); format: cell-based; conditions: background subtracted
Procedure: 1.4×10^5 of Colo205 cells were seeded into the wells of 96-well plates. Aliquots of Oxaliplatin reconstituted in 5% glucose solution were prepared freshly and added to each well at the final concentration of 1 and 10 ug/ml, along or in combination with aliquots of purified c5F1-v17, c5F1-v24, c5F1-v25 and control antibodies at the final concentrations of 10 and 30 ug/ml. The treated cells were kept at 37° incubator for 24 h before FACS analysis for apoptosis. For cellular apoptosis assay, Annexin V staining was measured using Annexin-V-FITC Apoptosis Detection Kit (Strong Biotech, Cat. No. AV 250) following the manufacturer's instruction. In brief, the treated cells were harvested and resuspended in Annexin V binding buffer containing Annexin V-FITC at room temperature. After 15 min incubation in the dark, the cells were washed twice with 200 ul of Annexin V binding buffer. Before FACS analysis, 0.5 ul of propidium iodide (PI) was added. All flow cytometric analyses were performed on a BD-LSR flow cytometer (Becton Dickinson) using the Cell Quest software. The Annexin V positive and/or PI positive cells are considered apoptotic cells.

COLO 205 cells [1] = assay: Binding assay: flow cytometric binding of 5F1 antibodies to COLO 205 cells; conditions: for binding to Colo 205 (words): FIG. 3, 0.125 to 4 ug/ml
Procedure: Purified m5F1, c5F1-v0, c5F1-v15 and c5F1-v16 antibodies at the concentration ranging from 0.125 to 4 ug/ml were added to 1.5×10^5 COLO 205 cells and incubated for 30 min at 4° C., washed for twice with PBS containing 2% FBS and 0.05% NaN3, followed by incubation with 1 μg/ml of corresponding secondary antibodies (R-PE-conjugated goat F(ab′)2 anti-mouse IgG(H+L), Southern Biotech, Cat. No. 1032-09; or R-PE-conjugated goat anti-human IgG, Southern Biotech, Cat. No. 2040-09) at 4° C. for 30 min. At the end of staining, samples were washed twice with PBS containing 2% FBS and 0.05% NaN3 and analyzed by flow cytometer. All flow cytometric analyses were performed on a BD-LSR flow cytometer (Becton Dickinson) using the Cell Quest software.
Purified m5F1, c5F1-v0, c5F1-yl7, c5F1-v24 and c5F1-v25 antibodies at 1 ug/ml were added to 2×10^5 Colo 205 cells and incubated for 30 min at 4° C., washed for twice with PBS containing 1% FBS, followed by incubation with 1 ug/ml of corresponding secondary antibodies (R-PE-conjugated goat F(ab′)2 anti-mouse IgG(H+L), Southern Biotech, Cat. No. 1032-09; or R-PE-conjugated goat anti-human IgG, Southern Biotech, Cat. No. 2040-09) at 4° C. for 30 min. At the end of staining, samples were washed twice with PBS containing 1% FBS and 0.05% NaN3 and analyzed by flow cytometer. All flow cytometric analyses were performed on a BD-LSR flow cytometer (Becton Dickinson) using the Cell Quest software.

COLO 205 cells [2] = assay: Six-hour apoptosis assay (Annexin V / PI, FACS) in COLO 205; format: cell-based; conditions: 6 h
Procedure: 1.5×10^5 of COLO 205 cells were seeded into the wells of 96-well plates. Aliquots of purified m5F1, c5F1-v0, c5F1-v15, c5F1-v16 and control antibodies at the concentration ranging from 2 to 32 ug/ml were prepared freshly in culture medium and added to each well. The sample treated with m9E10 and h16C11A were used as isotype control. The treated cells were kept at 37° incubator for 6 h before FACS analysis for apoptosis. For cellular apoptosis assay, Annexin V staining was measured using Annexin-V-FITC Apoptosis Detection Kit (Strong Biotech, Cat. No. AVK250) following the manufacturer's instruction. In brief, the treated cells were harvested and resuspended in Annexin V binding buffer containing Annexin V-FITC at room temperature. After 15 min incubation in the dark, the cells were washed twice with 200 μl of Annexin V binding buffer. Before FACS analysis, 0.25 μg/ml of propidium iodide (PI) was added. All flow cytometric analyses were performed on a BD-LSR flow cytometer (Becton Dickinson) using the Cell Quest software. The Annexin VI positive and/or PI positive cells are considered apoptotic cells.
1.5×10^5 of Colo205 cells were seeded into the wells of 96-well plates. Aliquots of purified m5F1, c5F1, c5F1-v17, c5F1-v24, c5F1-v25 and control antibodies at the concentration ranging from 8 to 32 ug/ml were prepared freshly in culture medium and added to each well. The treated cells were kept at 37° incubator for 6 h before FACS analysis for apoptosis. For cellular apoptosis assay, Annexin V staining was measured using Annexin-V-FITC Apoptosis Detection Kit (Strong Biotech, Cat. No. AV 250) following the manufacturer's instruction. In brief, the treated cells were harvested and resuspended in Annexin V binding buffer containing Annexin V-FITC at room temperature. After 15 min incubation in the dark, the cells were washed twice with 200 ul of Annexin V binding buffer. Before FACS analysis, 0.25 ug/ml of propidium iodide (PI) was added. All flow cytometric analyses were performed on a BD-LSR flow cytometer (Becton Dickinson) using the Cell Quest software. The Annexin VI positive and/or PI positive cells are considered apoptotic cells.

O=C1[O][Pt]2([NH][C@@H]3CCCC[C@H]3[NH]2)[O]C1=O [Oxaliplatin]
% apoptosis (Colo205 cells; Oxaliplatin 1 ug/ml alone (Antibody 0)): 2% | % apoptosis (Colo205 cells; Oxaliplatin 10 ug/ml alone (Antibody 0)): 6%

c5F1-v0: chimeric 5F1: variable region of murine 5F1 with constant region of human IgG1; heavy chain v0[H], light chain v0[L]
binding to Colo 205 (words) (COLO 205 cells [1]): bind COLO 205 cells | binding to Colo 205 (words) (COLO 205 cells [1]; listed as c5F1v0): significant binding | Median Fluorescence Intensity (MFI) (COLO 205 cells [1]; Table 10, antibodies at 1 ug/ml): 2760 | apoptosis-inducing activity in COLO 205 (COLO 205 cells [2]; 2 to 32 ug/ml, compared with m5F1): not as efficient as m5F1 | % of Annexin V and/or PI positive cells (COLO 205 cells [2]; Table 7, 4 ug/ml): 33% | % of Annexin V and/or PI positive cells (COLO 205 cells [2]; Table 7, 8 ug/ml): 46% | % of Annexin V and/or PI positive cells (COLO 205 cells [2]; Table 7, 16 ug/ml): 68% | % of Annexin V and/or PI positive cells (COLO 205 cells [2]; Table 7, 32 ug/ml): 78% | % of Annexin V and/or PI positive cells (COLO 205 cells [2]; Table 11 Exp. 1, 8 ug/ml): 34% | % of Annexin V and/or PI positive cells (COLO 205 cells [2]; Table 11 Exp. 1, 16 ug/ml): 60% | % of Annexin V and/or PI positive cells (COLO 205 cells [2]; Table 11 Exp. 1, 32 ug/ml): 70% | % of Annexin V and/or PI positive cells (COLO 205 cells [2]; Table 11 Exp. 2, 8 ug/ml): 54% | % of Annexin V and/or PI positive cells (COLO 205 cells [2]; Table 11 Exp. 2, 16 ug/ml): 63% | % of Annexin V and/or PI positive cells (COLO 205 cells [2]; Table 11 Exp. 2, 32 ug/ml): 69%
